Counter-ions that a name gives are not always drawn.
How the values were obtained:
[1] = parameters: species or system mice; conditions: mouse, in vivo, po
Text: (§1) Levels of NRH and other NAD-related metabolites in biological samples were obtained by using a cold liquid-liquid extraction using a mixture of methanol:water:chloroform in 5:3:5 (v/v), from which the polar phase was recovered for hydrophilic interaction ultra-high performance liquid chromatography mass spectrometry (UHPLC-MS) analysis. The UHPLC consisted of a binary pump, a cooled autosampler, and a column oven (DIONEX Ultimate 3000 UHPLC+ Focused, Thermo Scientific), connected to a triple quadrupole spectrometer (TSQ Vantage, Thermo Scientific) equipped with a heated electrospray ionisation (H-ESI) source. Of each sample, 2 μL were injected into the analytical column (2.1 mm×150 mm, 5 μm pore size, 200 Å HILICON iHILIC®-Fusion(P)), guarded by a pre-column (2.1 mm×20 mm, 200 Å HILICON iHILIC®-Fusion(P) Guard Kit) operating at 35° C. The mobile phase (10 mM ammonium acetate at pH 9, A, and acetonitrile, B) was pumped at 0.25 mL/min flow rate over a linear gradient of decreasing organic solvent (0.5-16 min, 90-25% B), followed by re-equilibration for a total run time of 30 min. The MS operated in positive mode at 3500 V with multiple reaction monitoring (MRM). The software Xcalibur v4.1.31.9 (Thermo Scientific) was used for instrument control, data acquisition and processing. Retention time and mass detection was confirmed by authentic standards.
Oral administration of NRH led to very similar results to those observed after IP administration. […] In contrast, NR levels were undetectable at 1 h after NR administration. As expected, NR treatment led to large increases in circulating NAM, which where ˜4-fold higher than those observed after NRH treatment.

[2] = Stability of NRH or NR spiked in isolated mouse plasma; assay type: in vitro ADME; conditions: 2 h of incubation
Text: as §1
(§2) NR degradation to NAM has been proposed as a limitation for its pharmacological efficacy. To evaluate whether NRH was also susceptible to degradation to NAM, we spiked NRH or NR in isolated mouse plasma. […] We also tested the stability of NRH in other matrixes.

[3] = Circulating NAM, NRH and NR after intraperitoneal injection; assay type: in vivo, mice; conditions: IP 500 mg/kg
Text: as §1
(§3) The above results prompted us to test whether NRH could act as an effective NAD+ precursor in vivo. For this, we first intraperitoneally (IP) injected mice with either NR or NRH (500 mg/kg).

[4] = test system: NAD+ levels in liver, muscle and kidney; assay: Tissue NAD+ levels after intraperitoneal injection of NR or NRH; assay type: in vivo, mice; conditions: IP 500 mg/kg, after 1 h
Description: as §3

[5] = Stability in FBS supplemented media; assay type: in vitro ADME
Text: as §2

NRK1 = assay: NAD+ levels in primary hepatocytes from control or NRK1 knockout mice; conditions: 1 hour of treatment

SMILES: NC(=O)c1ccc[n+]([C@@H]2O[C@H](CO)[C@@H](O)[C@H]2O)c1 [NR, 1-b-D-ribofuranosyl-3-pyridinecarboxamide salt, reference compound]
- circulating NAM after NR treatment relative to NRH treatment ([1]; C57BI/6NTac, 1 h): ~4 fold
- administered compound in plasma [1]: undetectable
- compound levels in isolated mouse plasma [2]: decayed in plasma
- generation of NAM in isolated mouse plasma [2]: increase in NAM
- NAM levels in circulation [3]: highly increased in circulation
- NAD+ levels in kidney [4]: increased NAD+ levels
- NAD+ levels in liver [4]: increased NAD+ levels
- NAD+ levels in muscle [4]: increased NAD+ levels
- degradation to NAM in FBS supplemented media [5]: as occurs with NR
- NAD+ levels in NRK1KO derived primary hepatocytes (NRK1): failed to increase NAD+ levels

Reference: patent US20220296623A1, “REDUCED NICOTINAMIDERIBOSIDES FOR TREATING OR PREVENTING KIDNEY DISEASE” (SOCIETE DES PRODUITS NESTLE S.A., priority 2019, published 2022)
